# In patent publication US4840956A, “Novel disubstituted-7-pyrrolidinoquinoline antibacterial agents” (Warner-Lambert Company, priority 1988, dated 1989):
# Experiments:
# Assay in all cases: MIC by microtitration dilution method
# Assay type in all cases: cell-based
# [1] = tested on: Streptococcus faecalis MGH-2; conditions: Enterococcus faecalis, MGH2; Streptococcus faecalis MGH-2, in vitro; read-out: Minimal Inhibitory Concentration MIC
# Excerpt: (§1) The compounds of the invention display antibacterial activity when tested by the microtitration dilution method as described in Heifetz, et al, Antimicr. Agents & Chemoth., 6, 124 (1974), which is incorporated herein by reference.
# (§2) By use of the above referenced method, the following minimum inhibitory concentration values (MICs in μg/ml) were obtained for representative compounds of the invention.
# [2] = tested on: Staphylococcus aureus UC-76; conditions: UC76; Staphylococcus aureus UC-76, in vitro; read-out: Minimal Inhibitory Concentration MIC
# Excerpt: as §1, §2
# [3] = tested on: Staphylococcus aureus H 228; conditions: H228; Staphylococcus aureus H 228, in vitro; read-out: Minimal Inhibitory Concentration MIC
# Excerpt: as §1, §2
# [4] = tested on: Streptococcus pneumoniae SV-1; conditions: SV1; Streptococcus pneumoniae SV-1, in vitro; read-out: Minimal Inhibitory Concentration MIC
# Excerpt: as §1, §2
# [5] = tested on: Streptococcus pyogenes C-203; conditions: C203; Streptococcus pyogenes C-203, in vitro; read-out: Minimal Inhibitory Concentration MIC
# Excerpt: as §1, §2
# [6] = tested on: Klebsiella pneumoniae MGH-2; conditions: MGH2, read-out: Minimal Inhibitory Concentration MIC
# Excerpt: (§3) Agents & Chemoth., 6, 124 (1974), which is incorporated herein by reference.
# [7] = tested on: Pseudomonas aeruginosa UI-18; conditions: UI18, read-out: Minimal Inhibitory Concentration MIC
# Excerpt: as §3
# Escherichia coli Vogel = conditions: in vitro, read-out: Minimal Inhibitory Concentration MIC
# Excerpt: as §3
# [8] = tested on: Enterobacter cloacae MA 2646; conditions: MA2646, read-out: Minimal Inhibitory Concentration MIC
# Excerpt: as §3
# Proteus rettgeri M 1771 = conditions: Providencia rettgeri, M1771; Proteus rettgeri M 1771, in vitro; read-out: Minimal Inhibitory Concentration MIC
# Excerpt: as §3
structure (smiles),measurement,setting,value
"NCC1(c2ccccc2)CCN(c2c(F)cc3c(=O)c(C(=O)O)cn(C4CC4)c3c2F)C1 (stereo not shown) [Example 5, 7-[[3-(Aminomethyl)-3-phenyl]-1-pyrrolidinyl]-1-cyclopropyl-6,8-difluro-1,4-dihydro-4-oxo-3-quinolinecarboxylic acid]",MIC,[1],0.05 µg/mL
same,MIC,[2],0.013 µg/mL
same,MIC,[3],0.025 µg/mL
same,MIC,[4],0.013 µg/mL
same,MIC,[5],0.05 µg/mL
same,MIC,[6],0.1 µg/mL
same,MIC,[7],0.4 µg/mL
same,MIC,Escherichia coli Vogel,0.05 µg/mL
same,MIC,[8],0.05 µg/mL
same,MIC,Proteus rettgeri M 1771,0.2 µg/mL
